Source: paper PMC2891242 (Bioorganic & medicinal chemistry, 2009)
Entries after “also recorded” stand apart in the source; their conditions may differ. Marks after values point to notes of the source that are not given here. One block for each compound: values may come before it.

Assays:
α1-adrenergic receptor = experiment: [3H]prazosin displacement from brain membranes; type: binding, Wistar rat; settings: for α1-Adrenergic (% displacement at 3 μM): 3 μM test compound, 0.25 nM [3H]prazosin, duplicate; for α1-adrenergic binding: displacement of ligand at 3 μM
human NR1/NR2B = human NR1/NR2B (Homo sapiens, UniProt Q05586+Q13224); experiment: Two electrode voltage clamp concentration-effect curve, human NR1/NR2B; type: cell-based
human NR1/NR2B, sequence (Q13224 27-1484, other chains not shown): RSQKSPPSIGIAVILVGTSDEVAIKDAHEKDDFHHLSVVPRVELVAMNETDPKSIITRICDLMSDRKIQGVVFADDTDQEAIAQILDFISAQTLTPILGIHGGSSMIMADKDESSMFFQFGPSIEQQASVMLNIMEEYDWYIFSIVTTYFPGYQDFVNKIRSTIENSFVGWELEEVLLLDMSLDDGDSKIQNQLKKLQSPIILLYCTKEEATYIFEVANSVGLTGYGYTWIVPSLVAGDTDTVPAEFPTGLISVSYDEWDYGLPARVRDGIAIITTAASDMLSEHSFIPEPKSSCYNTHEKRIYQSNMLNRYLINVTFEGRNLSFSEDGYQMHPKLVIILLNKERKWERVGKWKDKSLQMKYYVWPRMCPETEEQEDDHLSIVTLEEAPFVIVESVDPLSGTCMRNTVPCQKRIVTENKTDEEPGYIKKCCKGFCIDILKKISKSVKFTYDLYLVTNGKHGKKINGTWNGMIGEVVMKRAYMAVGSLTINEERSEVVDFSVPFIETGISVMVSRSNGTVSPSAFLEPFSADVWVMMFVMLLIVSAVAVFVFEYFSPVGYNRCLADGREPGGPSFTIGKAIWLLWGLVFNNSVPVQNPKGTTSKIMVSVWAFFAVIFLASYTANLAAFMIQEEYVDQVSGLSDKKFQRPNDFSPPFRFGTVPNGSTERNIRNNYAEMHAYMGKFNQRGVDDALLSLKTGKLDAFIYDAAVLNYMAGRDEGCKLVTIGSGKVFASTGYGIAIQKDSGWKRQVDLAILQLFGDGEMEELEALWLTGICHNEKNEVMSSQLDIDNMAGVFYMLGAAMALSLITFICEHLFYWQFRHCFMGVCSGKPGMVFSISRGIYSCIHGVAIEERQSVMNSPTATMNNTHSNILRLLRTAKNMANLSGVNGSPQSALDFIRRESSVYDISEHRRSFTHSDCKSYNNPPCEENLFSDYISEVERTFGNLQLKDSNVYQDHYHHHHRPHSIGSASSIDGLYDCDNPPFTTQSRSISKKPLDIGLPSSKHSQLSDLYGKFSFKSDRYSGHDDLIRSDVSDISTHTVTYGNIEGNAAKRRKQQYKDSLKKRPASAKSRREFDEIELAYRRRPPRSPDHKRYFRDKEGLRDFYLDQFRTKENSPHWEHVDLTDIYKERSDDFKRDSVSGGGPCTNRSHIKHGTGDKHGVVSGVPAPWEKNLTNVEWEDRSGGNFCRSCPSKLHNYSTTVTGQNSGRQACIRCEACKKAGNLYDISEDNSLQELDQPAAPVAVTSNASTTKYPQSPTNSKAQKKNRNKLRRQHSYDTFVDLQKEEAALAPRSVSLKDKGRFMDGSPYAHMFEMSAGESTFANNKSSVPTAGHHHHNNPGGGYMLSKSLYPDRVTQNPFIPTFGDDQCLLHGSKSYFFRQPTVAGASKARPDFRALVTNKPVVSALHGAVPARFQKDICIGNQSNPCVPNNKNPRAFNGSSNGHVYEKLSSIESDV

GluR6 = GluR6 (Rattus norvegicus, UniProt P42260); type: cell-based
GluR6, sequence (P42260 32-908): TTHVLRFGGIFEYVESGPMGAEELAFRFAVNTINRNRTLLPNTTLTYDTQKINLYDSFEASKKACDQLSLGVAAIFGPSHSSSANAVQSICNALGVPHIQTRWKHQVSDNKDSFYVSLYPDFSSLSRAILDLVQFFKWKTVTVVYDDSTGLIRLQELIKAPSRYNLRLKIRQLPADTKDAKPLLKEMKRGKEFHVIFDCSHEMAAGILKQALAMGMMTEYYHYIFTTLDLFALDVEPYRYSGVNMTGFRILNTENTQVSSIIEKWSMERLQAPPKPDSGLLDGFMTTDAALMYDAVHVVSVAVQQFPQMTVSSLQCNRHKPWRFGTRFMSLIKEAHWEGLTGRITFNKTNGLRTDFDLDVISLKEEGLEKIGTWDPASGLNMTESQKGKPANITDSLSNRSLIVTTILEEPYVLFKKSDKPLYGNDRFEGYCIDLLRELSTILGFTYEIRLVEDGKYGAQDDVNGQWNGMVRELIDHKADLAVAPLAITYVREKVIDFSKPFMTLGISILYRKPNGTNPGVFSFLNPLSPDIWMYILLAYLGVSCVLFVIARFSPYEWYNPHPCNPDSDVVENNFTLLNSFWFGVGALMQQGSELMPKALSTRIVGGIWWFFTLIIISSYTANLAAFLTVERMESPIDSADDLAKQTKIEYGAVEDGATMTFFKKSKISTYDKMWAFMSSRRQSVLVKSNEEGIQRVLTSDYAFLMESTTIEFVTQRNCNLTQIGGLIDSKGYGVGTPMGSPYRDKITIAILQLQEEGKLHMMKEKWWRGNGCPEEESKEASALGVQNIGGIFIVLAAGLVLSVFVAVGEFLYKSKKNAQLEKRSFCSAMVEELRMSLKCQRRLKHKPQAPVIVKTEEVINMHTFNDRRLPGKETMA

GluR1 = GluR1 (Rattus norvegicus, UniProt P19490); experiment: Two electrode voltage clamp, homomeric GluR1 AMPA receptors in Xenopus oocytes; type: cell-based
GluR1, sequence (P19490 19-907): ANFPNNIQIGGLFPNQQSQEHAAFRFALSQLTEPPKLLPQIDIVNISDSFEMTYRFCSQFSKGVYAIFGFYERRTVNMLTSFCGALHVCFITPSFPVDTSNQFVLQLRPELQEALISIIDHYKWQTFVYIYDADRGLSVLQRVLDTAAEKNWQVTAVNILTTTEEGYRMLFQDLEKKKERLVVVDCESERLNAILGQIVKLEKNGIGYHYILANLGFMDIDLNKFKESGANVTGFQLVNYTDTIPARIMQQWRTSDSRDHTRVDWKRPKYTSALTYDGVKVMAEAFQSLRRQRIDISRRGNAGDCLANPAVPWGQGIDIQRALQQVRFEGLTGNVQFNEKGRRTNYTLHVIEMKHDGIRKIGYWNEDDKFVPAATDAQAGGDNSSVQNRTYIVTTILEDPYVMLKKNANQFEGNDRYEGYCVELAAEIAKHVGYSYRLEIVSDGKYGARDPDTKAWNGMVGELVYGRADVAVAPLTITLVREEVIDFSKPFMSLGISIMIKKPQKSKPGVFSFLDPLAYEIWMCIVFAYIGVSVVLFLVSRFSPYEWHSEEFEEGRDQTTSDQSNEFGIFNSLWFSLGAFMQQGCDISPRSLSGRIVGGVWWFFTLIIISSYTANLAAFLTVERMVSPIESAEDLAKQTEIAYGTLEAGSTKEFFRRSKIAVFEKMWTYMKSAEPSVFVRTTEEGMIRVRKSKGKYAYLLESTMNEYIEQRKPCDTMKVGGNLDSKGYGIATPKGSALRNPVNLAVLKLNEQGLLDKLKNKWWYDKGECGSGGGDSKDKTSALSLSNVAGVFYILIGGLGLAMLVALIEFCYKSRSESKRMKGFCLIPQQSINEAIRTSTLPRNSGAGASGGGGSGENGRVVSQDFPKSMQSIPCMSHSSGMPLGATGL

[1] = molecular target: human ether-a-go-go potassium channel (hERG) (Homo sapiens, UniProt Q12809); experiment: [3H]astemizole displacement, hERG expressed in HEK293 cells; type: binding
human ether-a-go-go potassium channel (hERG), sequence (Q12809 whole entry): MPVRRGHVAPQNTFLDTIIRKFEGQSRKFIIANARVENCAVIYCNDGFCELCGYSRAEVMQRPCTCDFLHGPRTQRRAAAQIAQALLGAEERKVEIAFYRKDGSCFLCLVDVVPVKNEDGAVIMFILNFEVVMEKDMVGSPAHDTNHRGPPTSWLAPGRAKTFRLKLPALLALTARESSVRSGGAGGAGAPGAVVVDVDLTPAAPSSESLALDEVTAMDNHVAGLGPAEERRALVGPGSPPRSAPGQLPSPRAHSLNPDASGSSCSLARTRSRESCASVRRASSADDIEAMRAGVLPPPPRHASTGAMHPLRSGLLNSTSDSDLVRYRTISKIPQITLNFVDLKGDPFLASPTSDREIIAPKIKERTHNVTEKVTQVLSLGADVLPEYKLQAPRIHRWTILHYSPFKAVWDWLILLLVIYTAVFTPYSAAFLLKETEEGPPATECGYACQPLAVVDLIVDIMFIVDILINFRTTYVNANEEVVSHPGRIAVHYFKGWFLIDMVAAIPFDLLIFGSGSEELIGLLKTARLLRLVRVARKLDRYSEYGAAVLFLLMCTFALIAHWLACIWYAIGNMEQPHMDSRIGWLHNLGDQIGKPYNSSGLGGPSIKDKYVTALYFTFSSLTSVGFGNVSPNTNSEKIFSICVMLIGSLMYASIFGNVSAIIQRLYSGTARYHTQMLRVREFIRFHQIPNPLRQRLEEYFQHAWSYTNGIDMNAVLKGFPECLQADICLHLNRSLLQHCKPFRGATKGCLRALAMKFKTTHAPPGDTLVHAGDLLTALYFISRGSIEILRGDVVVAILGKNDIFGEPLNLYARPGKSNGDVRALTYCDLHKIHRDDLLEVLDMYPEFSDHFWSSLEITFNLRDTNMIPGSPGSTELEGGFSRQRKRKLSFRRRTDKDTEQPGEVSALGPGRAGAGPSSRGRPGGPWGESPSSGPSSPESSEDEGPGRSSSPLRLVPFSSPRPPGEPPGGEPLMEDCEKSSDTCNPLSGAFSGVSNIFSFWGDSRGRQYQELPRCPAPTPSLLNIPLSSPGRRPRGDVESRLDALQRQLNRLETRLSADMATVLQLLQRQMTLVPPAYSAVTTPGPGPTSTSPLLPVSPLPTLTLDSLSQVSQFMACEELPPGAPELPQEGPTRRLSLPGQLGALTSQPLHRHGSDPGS

rat NR1/NR2B = rat NR1/NR2B (Rattus norvegicus, UniProt P35439+Q00960); experiment: Two electrode voltage clamp, recombinant NR1/NR2B in Xenopus oocytes; type: cell-based; settings: n = 5
[2] = tested on: voltage-gated Na+ or K+ currents; type: cell-based, rat; settings: 3 μM; cultured cortical neurons; Na+ at −10 mV, K+ at +50 mV
NR1/NR2B(ΔATD) = NR1/NR2B(ΔATD) (Rattus norvegicus, UniProt Q00960); experiment: Two electrode voltage clamp, amino terminal domain deletion mutant NR1/NR2B; type: cell-based; settings: maximal glutamate and glycine
MDR1 = experiment: MDR1-MDCK permeability; type: in vitro ADME; settings: dog, MDCK-MDR1, pH 7.4

α1-Adrenergic (% displacement at 3 μM) (α1-adrenergic receptor): <1%
Structure (SMILES): CS(=O)(=O)Nc1ccc(CCC(=O)NNC(=S)Nc2ccc(Cl)c(Cl)c2)cc1 [Compound 14, 4-(3,4-Dichlorophenyl)-1-(3-(4-(methylsulfonamido)-phenyl)propanoyl)thiosemicarbazide]

α1-Adrenergic (% displacement at 3 μM) (α1-adrenergic receptor): <1% | α1-adrenergic binding (α1-adrenergic receptor): negligible
Structure (SMILES): CS(=O)(=O)Nc1ccc(OCC(=O)NCCCc2ccc(Cl)c(Cl)c2)cc1 [Compound 54, N-(3-(3,4-Dichlorophenyl)propyl)-2-(4-(methylsulfonamido)phenoxy)acetamide]
hERG binding [1]: negligible

IC50 (human NR1/NR2B): ~1 µM
Structure (SMILES): CS(=O)(=O)Nc1ccc(OCCNCC(=O)Nc2ccc(Cl)c(Cl)c2)cc1 [Compound 67, N-(3,4-Dichlorophenyl)-2-(2-(4-(methylsulfonamido)-phenoxy)ethylamino) acetamide]

α1-adrenergic binding (α1-adrenergic receptor): negligible
Structure (SMILES): CS(=O)(=O)Nc1ccc(OCCN2CCN(c3ccc(Cl)c(Cl)c3)C2=O)cc1 [Compound 71, N-(4-(2-(3-(3,4-Dichlorophenyl)-2-oxoimidazolidin-1-yl)ethoxy)phenyl)methanesulfonamide]

Second part, the compound before the results:

Structure (SMILES): CS(=O)(=O)Nc1ccc(CCC(=O)NNC(=O)Cc2ccc(Cl)c(Cl)c2)cc1 [Compound 16, N’-(2-(3,4-Dichlorophenyl)acetyl)-3-(4-(methylsulfonamido)phenyl)propanehydrazide]
IC50 (human NR1/NR2B): 5.75 µM | remaining activity at 3 µM (GluR6; read-out: GluR6 % response): 97 ± 1% | remaining activity at 3 µM (GluR1; read-out: GluR1 % response): 101 ± 0.5%

Structure (SMILES): CS(=O)(=O)Nc1ccc(CCC(=O)NCCNc2ccc(Cl)c(Cl)c2)cc1 [Compound 49, N-(2-(3,4-Dichlorophenylamino)ethyl)-3-(4-(methylsulfonamido)phenyl)propanamide]
α1-adrenergic binding (α1-adrenergic receptor): neither amide 49 or 52 showed any α1-adrenergic binding

Structure (SMILES): CS(=O)(=O)Nc1ccc(CCC(=O)NC/C=C/c2ccc(Cl)c(Cl)c2)cc1 [Compound 50, N-(3,4-Dichlorocinnamyl)-3-(4-(methylsulfonamido)-phenyl)propanamide]
α1-adrenergic binding (α1-adrenergic receptor): without actions | hERG (% displacement) at 3 μM ([1]; 3 μM test compound, 1.5 nM [3H]-astemizole): 47 ^* %

Structure (SMILES): CS(=O)(=O)Nc1ccc(OCC(=O)NCCNc2ccc(Cl)c(Cl)c2)cc1 [Compound 52, N-(2-(3,4-Dichlorophenylamino)ethyl)-2-(4-(meth-ylsulfonamido)phenoxy)acetamide]
voltage dependence of inhibition (rat NR1/NR2B): voltage-independent | effect on voltage-gated Na+ or K+ currents [2]: no detectable effects | α1-Adrenergic (% displacement at 3 μM) (α1-adrenergic receptor): <1% | α1-adrenergic binding (α1-adrenergic receptor): neither amide 49 or 52 showed any α1-adrenergic binding; also recorded: minimal | effect on recombinant kainate receptors (GluR6) (GluR6; 3 μM): no detectable effects | effect on current response of NR1/NR2B(ΔATD) (NR1/NR2B(ΔATD)): virtually no effect | Ki [1]: ~12 µM | hERG binding [1]: minimal | effect on recombinant AMPA (GluR1) receptors (GluR1; 3 μM): no detectable effects

Structure (SMILES): CS(=O)(=O)Nc1ccc(OCC(=O)N2CCN(c3ccc(Cl)c(Cl)c3)CC2)cc1 [Compound 57, N-(4-(2-(4-(3,4-Dichlorophenyl)piperazin-1-yl)-2-oxoethoxy)phenyl)methanesulfonamide]
Papp A→B at 2 h, 5 μM (MDR1): 4.8 ×10⁻⁶ cm/s

Structure (SMILES): CS(=O)(=O)Nc1ccc(CCCN2CCN(c3ccc(Cl)c(Cl)c3)C2=O)cc1 [Compound 70, N-(4-(3-(3-(3,4-Dichlorophenyl)-2-oxoimidazolidin-1-yl)propyl)phenyl)methanesulfonamide]
α1-Adrenergic (% displacement at 3 μM) (α1-adrenergic receptor): <1% | α1-adrenergic binding (α1-adrenergic receptor): negligible
